Measured values reported in US9376418B2, “Substituted pyridine spleen tyrosine kinase (SYK) inhibitors” (Merck Sharp & Dohme Corp., priority 2012, dated 2016).

Each molecule was assayed against T1, recombinant human GST-SYK (Homo sapiens, UniProt P43405) (assay: Homogeneous Time-Resolved Fluorescence (HTRF) assay for the recombinant human Syk enzyme). Conditions: HTRF assay, recombinant human GST-SYK; IC50 given as class symbols; read-out: rhSYK Activity.
T1 construct: purchased Carna Biosciences 08-176
Type: biochemical
In short: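 Phosphorylation of a biotinylated Syk substrate peptide (250 nM) was run for 45 min at room temperature with 25 μM ATP and 5 mM Mg. It followed a 10-min preincubation of GST-hSYK ([…]) with compound in 15 mM Tris-HCl pH 7.5, 2 mM DTT. Product was detected by time-resolved fluorescence using a europium anti-phosphotyrosine antibody plus SA-APC in EDTA-containing quench buffer.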
An IC50 of under 100 nM was found for `Cc1cc(Nc2nccc(C(F)(F)F)n2)cc(-c2ccc(S(N)(=O)=O)nc2)c1` [Example 21.4, 5-(3-methyl-5-{[4-(trifluoromethyl)pyrimidin-2-yl]amino}phenyl)pyridine-2-sulfonamide] in this work. An IC50 of under 100 nM was found for `Cc1cc(Nc2nccc(C(F)(F)F)n2)cc(-c2ccc(N3CCCC[C@H]3C(=O)O)nc2)c1` [Example 7.120, (2S)-1-[5-(3-methyl-5-{[4-(trifluoromethyl)pyrimidin-2-yl]amino}phenyl)pyridin-2-yl]piperidine-2-carboxylic acid] in this work. An IC50 of 100 to 1000 nM was found for `Cc1cc(Nc2nccc(C(F)(F)F)n2)cc(-c2ccc(C(=O)Nc3cncnc3)nc2)c1` [Example 16.29, 5-(3-methyl-5-{[4-(trifluoromethyl)pyrimidin-2-yl]amino}phenyl)-N-pyrimidin-5-ylpyridine-2-carboxamide] in this work. An IC50 of 100 to 1000 nM was found for `Cc1cc(Nc2nccc(C(F)(F)F)n2)cc(-c2ccc(C(=O)NCC3COCCO3)nc2)c1` (centres unmarked) [Example 16.31] in this work. An IC50 of 100 to 1000 nM was found for `Cc1cc(Nc2nccc(C(F)(F)F)n2)cc(-c2ccc(C(=O)NCc3cnn(C)c3)nc2)c1` [Example 16.14, N-[(1-methyl-1H-pyrazol-4-yl)methyl]-5-(3-methyl-5-{[4-(trifluoromethyl)pyrimidin-2-yl]amino}phenyl)pyridine-2-carboxamide] in this work. An IC50 of under 100 nM was found for `CC(=O)NCCCNc1ccc(-c2cc(C)cc(Nc3nccc(C(F)(F)F)n3)c2)cn1` [Example 7.64, N-(3-{[5-(3-methyl-5-{[4-(trifluoromethyl)pyrimidin-2-yl]amino}phenyl)pyridin-2-yl]amino}propyl)acetamide] in this work. An IC50 of 100 to 1000 nM was found for `Cc1cc(Nc2nccc(C(F)(F)F)n2)cc(-c2ccc(O)nc2)c1` [Example 4.8, 5-(3-methyl-5-{[4-(trifluoromethyl)pyrimidin-2-yl]amino}phenyl)pyridin-2-ol] in this work. An IC50 of under 100 nM was found for `FC(F)(F)c1ccnc(Nc2cc(-c3ccccn3)cc(N3CCOCC3)c2)n1` [Example 1.2, N-(3-morpholin-4-yl-5-pyridin-2-ylphenyl)-4-(trifluoromethyl)pyrimidin-2-amine] in this work. An IC50 of under 100 nM was found for `Cc1cc(Nc2nccc(C(F)(F)F)n2)cc(-c2ccnc(NC3CNC(=O)C3)c2)c1` (centres unmarked) [Example 15.74, 4-{[4-(3-methyl-5-{[4-(trifluoromethyl)pyrimidin-2-yl]amino}phenyl)pyridin-2-yl]amino}pyrrolidin-2-one] in this work. An IC50 of 100 to 1000 nM was found for `O=C(O)c1ccnc(-c2cccc(Nc3nccc(C(F)(F)F)n3)c2)c1` [Example 2.11, 2-(3-{[4-(trifluoromethyl)pyrimidin-2-yl]amino}phenyl)pyridine-4-carboxylic acid] in this work. An IC50 of under 100 nM was found for `Cc1cc(Nc2nccc(C(F)(F)F)n2)cc(-c2ccnc(C3(O)CCC3)c2)c1` [Example 9.60, 1-[4-(3-methyl-5-{[4-(trifluoromethyl)pyrimidin-2-yl]amino}phenyl)pyridin-2-yl]cyclobutanol] in this work. An IC50 of under 100 nM was found for `COC(=O)CS(=O)(=O)Nc1ccc(-c2cc(C)cc(Nc3nccc(C(F)(F)F)n3)c2)cn1` [Example 8.1, Methyl {[5-(3-methyl-5-{[4-(trifluoromethyl)pyrimidin-2-yl]amino}phenyl)pyridin-2-yl]sulfamoyl}acetate] in this work. An IC50 of 100 to 1000 nM was found for `Cc1cc(Nc2nccc(C)n2)cc(-c2cccc(CCC(=O)O)n2)c1` [Example 2.35, 3-(6-{3-methyl-5-[(4-methylpyrimidin-2-yl)amino]phenyl}pyridin-2-yl)propanoic acid] in this work. An IC50 of under 100 nM was found for `Cc1cc(Nc2nccc(C(F)(F)F)n2)cc(-c2ccnc(N3CCCC4(CCCNC4=O)C3)c2)c1` (centres unmarked) [Example 15.27, 8-[4-(3-methyl-5-{[4-(trifluoromethyl)pyrimidin-2-yl]amino}phenyl)pyridin-2-yl]-2,8-diazaspiro[5.5]undecan-1-one] in this work. An IC50 of under 100 nM was found for `Cc1cc(Nc2nccc(C(F)(F)F)n2)cc(-c2ccc(-c3cn(CC(=O)O)nn3)nc2)c1` [Example 25.2, {4-[5-(3-Methyl-5-{[4-(trifluoromethyl)pyrimidin-2-yl]amino}phenyl)pyridin-2-yl]-1H-1,2,3-triazol-1-yl}acetic acid] in this work. An IC50 of 100 to 1000 nM was found for `Cc1cc(Nc2nccc(C(F)(F)F)n2)cc(-c2ccc(NC3(C(=O)O)CC3)nc2)c1` [Example 7.81, 1-{[5-(3-methyl-5-{[4-(trifluoromethyl)pyrimidin-2-yl]amino}phenyl)pyridin-2-yl]amino}cyclopropanecarboxylic acid] in this work. An IC50 of 100 to 1000 nM was found for `Cc1cc(Nc2nccc(C(F)(F)F)n2)cc(-c2ccc(C(=O)N(C)CCC3OCCO3)nc2)c1` [Example 16.25, N-[2-(1,3-dioxolan-2-yl)ethyl]-N-methyl-5-(3-methyl-5-{[4-(trifluoromethyl)pyimidin-2-yl]amino}phenyl)pyridine-2-carboxamide] in this work. An IC50 of under 100 nM was found for `Cc1cc(Nc2nccc(C(F)(F)F)n2)cc(-c2cncc(C(C)(O)C(C)O)c2)c1` (centres unmarked) [Example 9.73, 2-[5-(3-methyl-5-{[4-(trifluoromethyl)pyrimidin-2-yl]amino}phenyl)pyridin-3-yl]butane-2,3-diol] in this work. An IC50 of 100 to 1000 nM was found for `Cc1cc(Nc2nccc(C(F)(F)F)n2)cc(-c2cncc(C3(O)COC(C)(C)OC3)c2)c1` [Example 9.78, 2,2-dimethyl-5-[5-(3-methyl-5-{[4-(trifluoromethyl)pyrimidin-2-yl]amino}phenyl)pyridin-3-yl]-1,3-dioxan-5-ol] in this work. An IC50 of under 100 nM was found for `Cc1cc(Nc2nccc(C(F)(F)F)n2)cc(-c2ccc(C(=O)NS(C)(=O)=O)nc2)c1` [Example 16.1, N-(methylsulfonyl)-5-(3-methyl-5-{[4-(trifluoromethyl)pyrimidin-2-yl]amino}phenyl)pyridine-2-carboxamide] in this work. An IC50 of 100 to 1000 nM was found for `Cc1cc(Nc2nccc(C(F)(F)F)n2)cc(-c2ccc(OC3CCOCC3)nc2)c1` [Example 2.61, N-{3-methyl-5-[6-(tetrahydro-2H-pyran-4-yloxy)pyridin-3-yl]phenyl}-4-(trifluoromethyl)pyrimidin-2-amine] in this work. An IC50 of under 100 nM was found for `COc1ccnc(Nc2cc(C)cc(-c3ccc(C(C)(O)[C@H]4CC[C@H](C(=O)O)CC4)nc3)c2)n1` (single isomer, unassigned) [Example 9.17, trans-4-[(1R or 1S)-1-hydroxy-1-(5-{3-[(4-methoxypyrimidin-2-yl)amino]-5-methylphenyl}pyridin-2-yl)ethyl]cyclohexanecarboxylic acid] in this work. An IC50 of under 100 nM was found for `Cc1cc(Nc2nccc(C(F)(F)F)n2)cc(-c2ccc(C(C)(O)CO)nc2)c1` (centres unmarked) [Example 9.1, 2-[5-(3-Methyl-5-{[4-(trifluoromethyl)pyrimidin-2-yl]amino}phenyl)pyridin-2-yl]propane-1,2-diol] in this work. An IC50 of under 100 nM was found for `COc1cncc(-c2cc(C)cc(Nc3nccc(C(F)(F)F)n3)c2)c1` [Example 2.58, N-[3-(5-methoxypyridin-3-yl)-5-methylphenyl]-4-(trifluoromethyl)pyrimidin-2-amine] in this work. An IC50 of 100 to 1000 nM was found for `CCOC(=O)CCc1ccnc(-c2cc(C)cc(Nc3nccc(C4CC4)n3)c2)c1` [Example 2.39, ethyl 3-(2-{3-[(4-cyclopropylpyrimidin-2-yl)amino]-5-methylphenyl}pyridin-4-yl)propanoate] in this work. An IC50 of under 100 nM was found for `Cc1cc(Nc2nccc(C(F)(F)F)n2)cc(-c2ccc(C(=O)N(C)Cc3n[nH]c(=O)[nH]3)nc2)c1` [Example 16.51, N-methyl-5-(3-methyl-5-{[4-(trifluoromethyl)pyrimidin-2-yl]amino}phenyl)-N-[(5-oxo-4,5-dihydro-1H-1,2,4-triazol-3-yl)methyl]pyridine-2-carboxamide] in this work. An IC50 of under 100 nM was found for `Cc1cc(Nc2nccc(C(F)(F)F)n2)cc(-c2ccc([C@]3(O)CC[C@@H](C(=O)O)CC3)nc2)c1` [Example 9.34, cis-4-hydroxy-4-[5-(3-methyl-5-{[4-(trifluoromethyl)pyrimidin-2-yl]amino}phenyl)pyridin-2-yl]cyclohexanecarboxylic acid] in this work. An IC50 of 100 to 1000 nM was found for `COC1CN(C(=O)c2ccc(-c3cc(C)cc(Nc4nccc(C(F)(F)F)n4)c3)cn2)C1` [Example 16.34, N-(3-{6-[(3-methoxyazetidin-1-yl)carbonyl]pyridin-3-yl}-5-methylphenyl)-4-(trifluoromethyl)pyrimidin-2-amine] in this work. An IC50 of under 100 nM was found for `Cc1cc(Nc2ncc(F)c(C3CC3)n2)cc(-c2ccc(NC3CCNC3=O)nc2)c1` (centres unmarked) [Example 7.158, 3-[(5-{3-[(4-cyclopropyl-5-fluoropyrimidin-2-yl)amino]-5-methylphenyl}pyridin-2-yl)amino]pyrrolidin-2-one] in this work. An IC50 of under 100 nM was found for `Cc1cc(Nc2nccc(C(F)(F)F)n2)cc(-c2ccc(CCC(=O)O)cn2)c1` [Example 2.30, 3-[6-(3-methyl-5-{[4-(trifluoromethyl)pyrimidin-2-yl]amino}phenyl)pyridin-3-yl]propanoic acid] in this work. An IC50 of under 100 nM was found for `Cc1cc(Nc2nccc(C(F)(F)F)n2)cc(-c2ccnc(N3CCC[C@H]3C(N)=O)c2)c1` [Example 15.73, 1-[4-(3-methyl-5-{[4-(trifluoromethyl)pyrimidin-2-yl]amino}phenyl)pyridin-2-yl]-L-prolinamide] in this work. An IC50 of 100 to 1000 nM was found for `Cc1cc(Nc2nccc(C(F)(F)F)n2)cc(-c2ccc(C34CCC(C(=O)O3)C(C)(C)C4)nc2)c1` (single isomer, unassigned) [Example 9.9, (1R,4S or 1S,4R)-5,5-dimethyl-1-[5-(3-methyl-5-{[4-(trifluoromethyl)pyrimidin-2-yl]amino}phenyl)pyridin-2-yl]-2-oxabicyclo[2.2.2]octan-3-one] in this work. An IC50 of 100 to 1000 nM was found for `Cc1cc(Nc2nccc(C(F)(F)F)n2)cc(-c2ccnc(N3CCC(F)(F)CC3)c2)c1` [Example 15.70, N-{3-[2-(4,4-difluoropiperidin-1-yl)pyridin-4-yl]-5-methylphenyl}-4-(trifluoromethyl)pyrimidin-2-amine] in this work. An IC50 of under 100 nM was found for `CCC(CO)Nc1cc(-c2cc(C)cc(Nc3nccc(C(F)(F)F)n3)c2)ccn1` (centres unmarked) [Example 15.37, 2-{[4-(3-methyl-5-{[4-(trifluoromethyl)pyrimidin-2-yl]amino}phenyl)pyridin-2-yl]amino}butan-1-ol] in this work.

Same assay, conditions: recombinant GST-hSYK, 25 μM ATP, HTRF; read-out: IC50 (inhibition of human Syk activity)
An IC50 of 17.9 nM was found for `Cc1cc(Nc2nccc(C(F)(F)F)n2)cc(-c2ccc(C(C)(O)CO)nc2)c1` (centres unmarked) [Example 9.1, 2-[5-(3-Methyl-5-{[4-(trifluoromethyl)pyrimidin-2-yl]amino}phenyl)pyridin-2-yl]propane-1,2-diol] in this work.
